Test results published in patent US7108865B2, “Controlled-release dosage forms of azithromycin” (Pfizer Inc, priority 1994, dated 2006).

Key:
[1] = Visual Analogue Scale gastrointestinal side effects after 2 hr intravenous infusion (Example 3); assay type: in vivo, human; design: key to Mean Cumulative Score (Visual Analogue Scale), abdominal pain / Mean Cumulative Score (Visual Analogue Scale), nausea / Mean Cumulative Score (Visual Analogue Scale), regurgitation / Mean Cumulative Score (Visual Analogue Scale), abdominal cramping: sum over 240 h of 0–10 VAS severity scores, averaged per subject; conditions: not corrected for placebo effects; for Incidence of Visual-Analogue-Scale score >1, abdominal cramping / Incidence of Visual-Analogue-Scale score >1, abdominal pain / Incidence of Visual-Analogue-Scale score >1, nausea / Incidence of Visual-Analogue-Scale score >1, regurgitation / Incidence of Visual-Analogue-Scale score >4, abdominal cramping / Incidence of Visual-Analogue-Scale score >4, abdominal pain / Incidence of Visual-Analogue-Scale score >4, nausea / Incidence of Visual-Analogue-Scale score >4, regurgitation: any time during 240 hour post-dose; for Mean Cumulative Score (Visual Analogue Scale), abdominal cramping / Mean Cumulative Score (Visual Analogue Scale), abdominal pain / Mean Cumulative Score (Visual Analogue Scale), nausea / Mean Cumulative Score (Visual Analogue Scale), regurgitation: entire 240 hour post-dose period
Description: Healthy male subjects were divided into four groups. Group A received a 2 hr intravenous infusion of a placebo solution (0 g azithromycin). Group B received a 2 hr intravenous infusion of a 1 g dose of azithromycin. Group C received a 2 hr intravenous infusion of a 2 g dose of azithromycin. Group D received a 2 hr intravenous infusion of a 4 g dose of azithromycin. […] All subjects were dosed after an overnight fast.
Prior to dosing and each blood sampling time, each subject filled out a questionnaire, which consisted of a series of “Visual Analogue Scales” in which the subject was required to rate, on a scale of 0–10, the severity of certain potential side effects. The subjects were instructed that “0” indicated an absent effect and “10” indicated the worst possible effect. The subjects were instructed to interpolate between 0 and 10 for moderate side effects.
Analysis of side effect visual-analogue-scale data was carried out in two formats. In the first format (Table VIII), the analysis concentrated on the general incidence of side effects of a particular type. For each side effect type (e.g., abdominal pain), Table VIII reports the number of subjects who reported a score >1 at any time during the 240 hr post-dosing, and the number of subjects who reported a score >4 at any time during the 240 hr post-dosing. This analysis assumes that all […] represent a real side effect occurrence, however mild or severe. A score >4 is presumed to reflect a moderate-to-severe side effect occurrence.
In the second format (Table IX), the analysis reflects the general severity and duration of side effects. For a particular side effect (e.g., Abdominal Pain) in a particular subject, all visual-analogue-scale scores (over the 240 hr post-dose period) were summed to give a “cumulative score” over the entire time period of evaluation. “Cumulative scores” for all members of a treatment group were summed, and divided by the number of subjects in the group, to a give a Mean Cumulative Score. […] Table IX presents Mean Cumulative Scores for abdominal pain, nausea, regurgitation, and abdominal cramping.

[2] = human body; cited from earlier work

CC[C@H]1OC(=O)[C@H](C)[C@@H](O[C@H]2C[C@@](C)(OC)[C@@H](O)[C@H](C)O2)[C@H](C)[C@@H](O[C@@H]2O[C@H](C)C[C@H](N(C)C)[C@H]2O)[C@](C)(O)C[C@@H](C)CN(C)[C@H](C)[C@@H](O)[C@]1(C)O [azithromycin, 9a-aza-9a-methyl-9-deoxo-9a-homoerythromycin A]
Incidence of Visual-Analogue-Scale score >1, abdominal cramping ([1]; 1 g IV over 2 hr): 0/5 | Incidence of Visual-Analogue-Scale score >1, abdominal pain ([1]; 1 g IV over 2 hr): 1/5 | Incidence of Visual-Analogue-Scale score >1, nausea ([1]; 1 g IV over 2 hr): 0/5 | Incidence of Visual-Analogue-Scale score >1, regurgitation ([1]; 1 g IV over 2 hr): 0/5 | Incidence of Visual-Analogue-Scale score >4, abdominal cramping ([1]; 1 g IV over 2 hr): 0/5 | Incidence of Visual-Analogue-Scale score >4, abdominal pain ([1]; 1 g IV over 2 hr): 0/5 | Incidence of Visual-Analogue-Scale score >4, nausea ([1]; 1 g IV over 2 hr): 0/5 | Incidence of Visual-Analogue-Scale score >4, regurgitation ([1]; 1 g IV over 2 hr): 0/5 | Mean Cumulative Score (Visual Analogue Scale), abdominal cramping ([1]; 1.0 g IV, n 6): 0.5 | Mean Cumulative Score (Visual Analogue Scale), abdominal pain ([1]; 1.0 g IV, n 6): 1.5 | Mean Cumulative Score (Visual Analogue Scale), nausea ([1]; 1.0 g IV, n 6): 0 | Mean Cumulative Score (Visual Analogue Scale), regurgitation ([1]; 1.0 g IV, n 6): 0 | Incidence of Visual-Analogue-Scale score >1, abdominal cramping ([1]; 2 g IV over 2 hr): 1/6 | Incidence of Visual-Analogue-Scale score >1, abdominal pain ([1]; 2 g IV over 2 hr): 2/6 | Incidence of Visual-Analogue-Scale score >1, nausea ([1]; 2 g IV over 2 hr): 4/6 | Incidence of Visual-Analogue-Scale score >1, regurgitation ([1]; 2 g IV over 2 hr): 1/6 | Incidence of Visual-Analogue-Scale score >4, abdominal cramping ([1]; 2 g IV over 2 hr): 1/6 | Incidence of Visual-Analogue-Scale score >4, abdominal pain ([1]; 2 g IV over 2 hr): 1/6 | Incidence of Visual-Analogue-Scale score >4, nausea ([1]; 2 g IV over 2 hr): 2/6 | Incidence of Visual-Analogue-Scale score >4, regurgitation ([1]; 2 g IV over 2 hr): 0/6 | Mean Cumulative Score (Visual Analogue Scale), abdominal cramping ([1]; 2.0 g IV, n 6): 3.8 | Mean Cumulative Score (Visual Analogue Scale), abdominal pain ([1]; 2.0 g IV, n 6): 5.7 | Mean Cumulative Score (Visual Analogue Scale), nausea ([1]; 2.0 g IV, n 6): 13.2 | Mean Cumulative Score (Visual Analogue Scale), regurgitation ([1]; 2.0 g IV, n 6): 0.5 | Incidence of Visual-Analogue-Scale score >1, abdominal cramping ([1]; 4 g IV over 2 hr): 4/5 | Incidence of Visual-Analogue-Scale score >1, abdominal pain ([1]; 4 g IV over 2 hr): 4/5 | Incidence of Visual-Analogue-Scale score >1, nausea ([1]; 4 g IV over 2 hr): 3/5 | Incidence of Visual-Analogue-Scale score >1, regurgitation ([1]; 4 g IV over 2 hr): 1/5 | Incidence of Visual-Analogue-Scale score >4, abdominal cramping ([1]; 4 g IV over 2 hr): 2/5 | Incidence of Visual-Analogue-Scale score >4, abdominal pain ([1]; 4 g IV over 2 hr): 0/5 | Incidence of Visual-Analogue-Scale score >4, nausea ([1]; 4 g IV over 2 hr): 2/5 | Incidence of Visual-Analogue-Scale score >4, regurgitation ([1]; 4 g IV over 2 hr): 1/5 | Mean Cumulative Score (Visual Analogue Scale), abdominal cramping ([1]; 4.0 g IV, n 5): 11.8 | Mean Cumulative Score (Visual Analogue Scale), abdominal pain ([1]; 4.0 g IV, n 5): 12.8 | Mean Cumulative Score (Visual Analogue Scale), nausea ([1]; 4.0 g IV, n 5): 10.6 | Mean Cumulative Score (Visual Analogue Scale), regurgitation ([1]; 4.0 g IV, n 5): 3.8 | elimination half-life [2]: about 69 hours
